From patent US6770778B2, “N-(4-substituted phenyl)-anthranilic acid hydroxamate esters” (Pfizer Inc, priority 2002, dated 2004)

What was measured:
[1] = tested on: MEK; assay: Cellular assay for measuring MEK inhibition (inhibition of ERK phosphorylation in C26 cells); assay type: cell-based; conditions: murine colon 26 (C26) carcinoma cells, 1 hour at 37° C., Western blot of dually phosphorylated ERK1 and ERK2
Description: The evaluation of the compounds as MEK inhibitors is performed in an assay that measures their ability to inhibit phosphorylation of MAP kinase (ERK) in murine colon 26 (C26) carcinoma cells. Since ERK1 and ERK2 represent the only known substrates for MEK, measurement of inhibition of ERK phosphorylation in cells provides direct readout of cellular MEK inhibition by the compounds of the invention. Briefly, the assay involves treating exponentially growing C26 cells with varying concentrations of the test compound (or vehicle control) for 1 hour at 37° C. Cells are then rinsed free of compound/vehicle and lysed in a solution containing 70 mM NaCl, 50 mM glycerol phosphate, 10 mM HEPES, pH 7.4, 1% Triton X-100, 1 mM Na3VO4, 100 μM PMSF, 10 μM leupeptin, and 10 μM pepstatin. Supernatants are then subjected to gel electrophoresis and Western blotting using a primary antibody recognizing dually phosphorylated ERK1 and ERK2. To evaluate total MAPK levels, blots were subsequently ‘stripped’ and re-probed with a 1:1 mixture of polyclonal antibodies recognizing unphosphorylated ERK1 and ERK2.
The inhibition data generated by the above protocol is disclosed in Table 1. If several concentrations of inhibitor were tested, IC50 values (the concentration which gives 50% inhibition) were determined graphically from the dose response curve for % inhibition. Otherwise, percent inhibitions at measured concentrations are reported.

COC(=O)c1ccc(Nc2c(C(=O)NOCCO)ccc(F)c2F)cc1 [Example 1, Methyl 4-[[2.3-difluoro-6-[[(2-hydroxyethoxy)amino]carbonyl]phenyl]-amino]benzoate]
IC50 [1]: > 1000 nM
melting point: 158 to 160 °C

O=C(O)c1ccc(Nc2c(C(=O)NOCCO)ccc(F)c2F)cc1 [Example 2, 4-[[2,3-Difluoro-6-[[(2-hydroxyethoxy)amino]carbonyl]phenyl]amino]-benzoic acid]
IC50 [1]: 73 nM
melting point: 180 to 183 °C

COC(=O)c1ccc(Nc2c(C(=O)NOCCO)ccc(F)c2F)c(F)c1 [Example 3, Methyl 4-(2,3-difluoro-6-{[(2-hydroxyethoxy)amino]carbonyl}anilino)-3-fluorobenzoate]
IC50 [1]: 27 nM
melting point: 162 to 165 °C

O=C(O)c1ccc(Nc2c(C(=O)NOCCO)ccc(F)c2F)c(F)c1 [Example 4, 4-(2,3-Difluoro-6-{[(2-hydroxyethoxy)amino]carbonyl}anilino)-3-fluorobenzoic acid]
IC50 [1]: > 1000 nM
melting point: 196 to 200 °C

COCC#Cc1ccc(Nc2c(C(=O)NOCCO)ccc(F)c2F)c(F)c1 [Example 5, 3,4-Difluoro-2-[[2-fluoro-4-(3-methoxy-1-propynyl)phenyl]amino]-N-(2-hydroxyethoxy)benzamide]
IC50 [1]: > 1000 nM
melting point: 121 to 123 °C

CC(=O)c1ccc(Nc2c(C(=O)NOCCO)ccc(F)c2F)c(Cl)c1 [Example 6, 2-(4-Acetyl-2-chloro-phenylamino)-3,4-difluoro-N-(2-hydroxy-ethoxy)-benzamide]
melting point: 161.5 to 162.5 °C

CNC(=O)c1ccc(Nc2c(C(=O)NOCCO)ccc(F)c2F)c(F)c1 [Example 7, 2-{2-fluoro-4-[(methylamino)carbonyl]anilino}-3,4-difluoro-N-(2-hydroxyethoxy)benzamide]
IC50 [1]: > 10000 nM
melting point: 197 to 200 °C
